{
  "source": "patent US20240025906A1",
  "about": "(NEURON23, INC., priority 2022, published 2024)",
  "key": {"[1]": {"test_system": "JAK1/TYK2 pSTAT5 (Tyr694/699) in THP-1 cell line", "experiment": "IFNa-stimulated JAK1/TYK2 pSTAT5 (Tyr694/699) inhibition cellular assay, AlphaLISA", "assay_type": "cell-based", "conditions": "Homo sapiens, THP-1 cells, AlphaLISA (Assay B)", "in_short": "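An eight-point 6-fold titration of compound (0.04–10000 nM final) is given to THP-1 cells for 1 h before 30 min of IFNa exposure. Phospho-STAT5 is read by AlphaLISA at 615 nm. IC50 values are derived by logistic regression with bottom set to 0 and Hill slope set to −1.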"}, "[2]": {"target": "T1, TYK2 JH2 (Homo sapiens, UniProt P29597)", "T1 construct": "purchased DiscoverX (KINOMEscan KdELECT service); host or cells: E. coli BL21-derived (T7 phage display) or HEK-293", "T1 sequence (P29597 589-875 limits assumed)": "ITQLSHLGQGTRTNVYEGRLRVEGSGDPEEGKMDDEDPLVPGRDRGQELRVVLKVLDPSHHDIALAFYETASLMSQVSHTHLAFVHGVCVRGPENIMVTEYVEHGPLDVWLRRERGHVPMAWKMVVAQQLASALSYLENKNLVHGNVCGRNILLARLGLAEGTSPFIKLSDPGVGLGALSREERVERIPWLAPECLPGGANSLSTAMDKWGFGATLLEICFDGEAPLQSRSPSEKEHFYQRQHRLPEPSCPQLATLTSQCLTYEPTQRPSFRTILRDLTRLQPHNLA", "experiment": "TYK2 JH2 binding assay (KINOMEscan KdELECT competitive binding)", "conditions": "TYK2 JH2 domain", "in_short": "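Competition binding, KdELECT format. Kinase (phage-tagged, E. coli BL21-derived host; or HEK-293, DNA-tagged) + ligand-coated streptavidin beads + cpd, 1 h RT, final DMSO 0.9%. Wash, elute 30 min with 0.5 μM non-biotinylated ligand; qPCR readout. Kd: 11-pt, 3-fold series.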"}, "[3]": {"conditions": "IFNa-stimulated, read-out: Cellular_THP1_IFNa-pSTATS_TYK2"}, "[4]": {"conditions": "KINOMEscan KdELECT (Assay A), read-out: Biochemical TYK2_DiscoverX_JH2_BND_Kd"}, "[5]": {"conditions": "IFNa-stimulated, read-out: Cellular THP1_IFNa-pSTATS_IC50"}, "[6]": {"conditions": "KINOMEscan KdELECT (Assay A), read-out: Biochemical TYK2_JH2_Kd"}, "[7]": {"conditions": "DiscoverX KINOMEscan KdELECT (Assay A), read-out: Biochemical TYK2_DiscoverX_JH2_BND_Kd"}, "[8]": {"conditions": "IFNa-stimulated pSTAT5 (Tyr694/699), read-out: Cellular_THP1_IFNa-pSTATS_TYK2"}},
  "note": "Like-named read-outs stand apart in the source and are kept apart here.",
  "data": [
    {"smiles": "CNc1ncc(C#Cc2cn3ccccc3n2)c2cc(NC(=O)C3CC3)ncc12", "note": "[Example 619, N-(5-(imidazo[1,2-a]pyridin-2-ylethynyl)-8-(methylamino)-2,7-naphthyridin-3-yl)cyclopropanecarboxamide]", "values": [
      {"measurement": "IC50", "setting": "[1]; [3]", "value": "≤ 500", "unit": "nM"},
      {"measurement": "Kd", "setting": "[2]; [4]", "value": "≤ 100", "unit": "nM"}
    ]},
    {"smiles": "CNc1ncc(-c2ccn(CC3CCS(=O)(=O)CC3)n2)c2cc(NC(=O)C3CC3)ncc12", "note": "[Example 153B, N-(5-(1-((1,1-dioxidotetrahydro-2H-thiopyran-4-yl)methyl)-1H-pyrazol-3-yl)-8-(methylamino)-2,7-naphthyridin-3-yl)cyclopropanecarboxamide]", "values": [
      {"measurement": "IC50", "setting": "[1]; [5]", "value": "> 500", "unit": "nM"},
      {"measurement": "Kd", "setting": "[2]; [6]", "value": "≤ 100", "unit": "nM"}
    ]},
    {"smiles": "CNc1ncc(C#Cc2ccc3ncccc3c2)c2cc(NC(=O)C3CC3)ncc12", "note": "[Example 620, N-(8-(methylamino)-5-(quinolin-6-ylethynyl)-2,7-naphthyridin-3-yl)cyclopropanecarboxamide]", "values": [
      {"measurement": "IC50", "setting": "[1]; [3]", "value": "≤ 500", "unit": "nM"},
      {"measurement": "Kd", "setting": "[2]; [4]", "value": "≤ 100", "unit": "nM"}
    ]},
    {"smiles": "CNc1ncc(C#Cc2ccc(OC(F)F)cc2)c2cc(NC(=O)C3CC3)ncc12", "note": "[Example 654, N-(5-((4-(difluoromethoxy)phenyl)ethynyl)-8-(methylamino)-2,7-naphthyridin-3-yl)cyclopropanecarboxamide]", "values": [
      {"measurement": "IC50", "setting": "[1]; [3]", "value": "≤ 500", "unit": "nM"},
      {"measurement": "Kd", "setting": "[2]; [4]", "value": "≤ 100", "unit": "nM"}
    ]},
    {"smiles": "CNc1ncc(-c2nc3nc(C)ccc3o2)c2cc(NC(=O)C3CC3)ncc12", "note": "[Example 460, N-(8-(methylamino)-5-(5-methyloxazolo[4,5-b]pyridin-2-yl)-2,7-naphthyridin-3-yl)cyclopropanecarboxamide]", "values": [
      {"measurement": "IC50", "setting": "[1]; [3]", "value": "≤ 500", "unit": "nM"},
      {"measurement": "Kd", "setting": "[2]; [7]", "value": "≤ 100", "unit": "nM"}
    ]},
    {"smiles": "CCC1CN(c2ccc3nc(-c4cnc(NC)c5cnc(NC(=O)[C@H]6C[C@H]6C)cc45)nn3c2)CCO1", "note": "(stereo partly drawn) [Example 1077, (1S,2R)-N-[5-[6-(2-ethylmorpholin-4-yl)-[1,2,4]triazolo[1,5-a]pyridin-2-yl]-8-(methylamino)-2,7-naphthyridin-3-yl]-2-methyl-cyclopropanecarboxamide]", "values": [
      {"measurement": "IC50", "setting": "[1]; [8]", "value": "≤ 500", "unit": "nM"},
      {"measurement": "Kd", "setting": "[2]; [4]", "value": "≤ 100", "unit": "nM"}
    ]},
    {"smiles": "CNc1ncc(-c2nc3cc(N4CCC(F)(F)C4)ccc3o2)c2cc(NC(=O)C3CC3)ncc12", "note": "[Example 942, N-(5-(5-(3,3-difluoropyrrolidin-1-yl)benzo[d]oxazol-2-yl)-8-(methylamino)-2,7-naphthyridin-3-yl)cyclopropanecarboxamide]", "values": [
      {"measurement": "IC50", "setting": "[1]; [3]", "value": "≤ 500", "unit": "nM"},
      {"measurement": "Kd", "setting": "[2]; [4]", "value": "≤ 100", "unit": "nM"}
    ]},
    {"smiles": "CNc1ncc(-c2nc3cc(OCC(C)(C)F)ccc3o2)c2cc(NC(=O)C3CC3)ncc12", "note": "[Example 941, N-[5-[5-(2-fluoro-2-methyl-propoxy)-1,3-benzoxazol-2-yl]-8-(methylamino)-2,7-naphthyridin-3-yl]cyclopropanecarboxamide]", "values": [
      {"measurement": "IC50", "setting": "[1]; [3]", "value": "≤ 500", "unit": "nM"},
      {"measurement": "Kd", "setting": "[2]; [4]", "value": "≤ 100", "unit": "nM"}
    ]},
    {"smiles": "CNc1ncc(C#Cc2ccc(OCC(C)(C)O)cc2)c2cc(NC(=O)C3CC3)ncc12", "note": "[Example 714, N-(5-((4-(2-hydroxy-2-methylpropoxy)phenyl)ethynyl)-8-(methylamino)-2,7-naphthyridin-3-yl)cyclopropanecarboxamide]", "values": [
      {"measurement": "IC50", "setting": "[1]; [3]", "value": "≤ 500", "unit": "nM"},
      {"measurement": "Kd", "setting": "[2]; [4]", "value": "≤ 100", "unit": "nM"}
    ]},
    {"smiles": "CNc1ncc(C#Cc2ccc(OC)cc2)c2cc(NC(=O)[C@@H]3C[C@@H]3F)ncc12", "note": "[Example 752, (1S,2S)-2-fluoro-N-(5-((4-methoxyphenyl)ethynyl)-8-(methylamino)-2,7-naphthyridin-3-yl)cyclopropane-1-carboxamide]", "values": [
      {"measurement": "IC50", "setting": "[1]; [3]", "value": "≤ 500", "unit": "nM"},
      {"measurement": "Kd", "setting": "[2]; [4]", "value": "≤ 100", "unit": "nM"}
    ]},
    {"smiles": "CNc1ncc(-c2nc3cc(C(C)(F)F)ccc3o2)c2cc(NC(=O)C3CC3)ncc12", "note": "[Example 243, N-(5-(5-(1,1-difluoroethyl)benzo[d]oxazol-2-yl)-8-(methylamino)-2,7-naphthyridin-3-yl)cyclopropanecarboxamide]", "values": [
      {"measurement": "IC50", "setting": "[1]; [3]", "value": "≤ 500", "unit": "nM"},
      {"measurement": "Kd", "setting": "[2]; [7]", "value": "≤ 100", "unit": "nM"}
    ]},
    {"smiles": "CNc1ncc(-c2nc3ccc(C(C)(F)F)cn3n2)c2cc(NC(=O)C3CC3)ncc12", "note": "[Example 493, N-(5-(6-(1,1-difluoroethyl)-[1,2,4]triazolo[1,5-a]pyridin-2-yl)-8-(methylamino)-2,7-naphthyridin-3-yl)cyclopropanecarboxamide]", "values": [
      {"measurement": "IC50", "setting": "[1]; [3]", "value": "≤ 500", "unit": "nM"},
      {"measurement": "Kd", "setting": "[2]; [7]", "value": "≤ 100", "unit": "nM"}
    ]},
    {"smiles": "CNc1ncc(C#Cc2ccc(OCC(F)(F)F)cn2)c2cc(NC(=O)C3CC3)ncc12", "note": "[Example 993, N-[8-(methylamino)-5-[2-[5-(2,2,2-trifluoroethoxy)-2-pyridyl]ethynyl]-2,7-naphthyridin-3-yl]cyclopropanecarboxamide]", "values": [
      {"measurement": "IC50", "setting": "[1]; [3]", "value": "≤ 500", "unit": "nM"},
      {"measurement": "Kd", "setting": "[2]; [4]", "value": "≤ 100", "unit": "nM"}
    ]},
    {"smiles": "CNc1ncc(-c2ccc(-c3cnn(C)n3)cc2)c2cc(NC(=O)C3CC3)ncc12", "note": "[Example 851, N-(5-(4-(2-methyl-2H-1,2,3-triazol-4-yl)phenyl)-8-(methylamino)-2,7-naphthyridin-3-yl)cyclopropanecarboxamide]", "values": [
      {"measurement": "IC50", "setting": "[1]; [3]", "value": "≤ 500", "unit": "nM"},
      {"measurement": "Kd", "setting": "[2]; [4]", "value": "≤ 100", "unit": "nM"}
    ]},
    {"smiles": "CNc1ncc(-c2nc3cc(N4CCO[C@H](C)C4)ccc3o2)c2cc(NC(=O)C3CC3)ncc12", "note": "[Example 302, (R)-N-(8-(methylamino)-5-(5-(2-methylmorpholino)benzo[d]oxazol-2-yl)-2,7-naphthyridin-3-yl)cyclopropanecarboxamide]", "values": [
      {"measurement": "IC50", "setting": "[1]; [3]", "value": "≤ 500", "unit": "nM"},
      {"measurement": "Kd", "setting": "[2]; [7]", "value": "≤ 100", "unit": "nM"}
    ]},
    {"smiles": "CNc1ncc(-c2cc3ccc(N4CCO[C@@H](C)C4)cn3n2)c2cc(NC(=O)[C@H]3C[C@H]3C)ncc12", "note": "[Example 798, (1S,2R)-2-methyl-N-(8-(methylamino)-5-(6-((S)-2-methylmorpholino)pyrazolo[1,5-a]pyridin-2-yl)-2,7-naphthyridin-3-yl)cyclopropane-1-carboxamide]", "values": [
      {"measurement": "IC50", "setting": "[1]; [3]", "value": "≤ 500", "unit": "nM"},
      {"measurement": "Kd", "setting": "[2]; [4]", "value": "≤ 100", "unit": "nM"}
    ]},
    {"smiles": "CNc1ncc(C#Cc2cn(C)nn2)c2cc(NC(=O)C3CC3)ncc12", "note": "[Example 1007, N-[8-(methylamino)-5-[2-(1-methyltriazol-4-yl)ethynyl]-2,7-naphthyridin-3-yl]cyclopropanecarboxamide]", "values": [
      {"measurement": "IC50", "setting": "[1]; [8]", "value": "≤ 500", "unit": "nM"},
      {"measurement": "Kd", "setting": "[2]; [4]", "value": "≤ 100", "unit": "nM"}
    ]},
    {"smiles": "CNc1ncc(C#Cc2ccc3nc(C(F)F)n(C)c3c2)c2cc(NC(=O)C3CC3)ncc12", "note": "[Example 739, N-(5-((2-(difluoromethyl)-1-methyl-1H-benzo[d]imidazol-6-yl)ethynyl)-8-(methylamino)-2,7-naphthyridin-3-yl)cyclopropanecarboxamide]", "values": [
      {"measurement": "IC50", "setting": "[1]; [3]", "value": "≤ 500", "unit": "nM"},
      {"measurement": "Kd", "setting": "[2]; [4]", "value": "≤ 100", "unit": "nM"}
    ]},
    {"smiles": "CNc1ncc(-c2ccc(C#N)cc2)c2cc(NC(=O)C3CC3)ncc12", "note": "[Example 37, N-(5-(4-cyanophenyl)-8-(methylamino)-2,7-naphthyridin-3-yl)cyclopropanecarboxamide]", "values": [
      {"measurement": "IC50", "setting": "[1]; [5]", "value": "> 500", "unit": "nM"},
      {"measurement": "Kd", "setting": "[2]; [6]", "value": "≤ 100", "unit": "nM"}
    ]},
    {"smiles": "CNc1ncc(-c2nc3ccc(N4CC(C)OC(C)C4)cn3n2)c2cc(NC(=O)C3CC3)ncc12", "note": "(racemic) [Example 480, N-(5-(6-(2,6-dimethylmorpholino)-[1,2,4]triazolo[1,5-a]pyridin-2-yl)-8-(methylamino)-2,7-naphthyridin-3-yl)cyclopropanecarboxamide (trans racemate)]", "values": [
      {"measurement": "IC50", "setting": "[1]; [3]", "value": "≤ 500", "unit": "nM"},
      {"measurement": "Kd", "setting": "[2]; [7]", "value": "≤ 100", "unit": "nM"}
    ]},
    {"smiles": "CNc1ncc(C#CC23CC(OC)(C2)C3)c2cc(NC(=O)C3CC3)ncc12", "note": "[Example 958, N-(5-((3-methoxybicyclo[1.1.1]pentan-1-yl)ethynyl)-8-(methylamino)-2,7-naphthyridin-3-yl)cyclopropanecarboxamide]", "values": [
      {"measurement": "IC50", "setting": "[1]; [3]", "value": "≤ 500", "unit": "nM"},
      {"measurement": "Kd", "setting": "[2]; [4]", "value": "≤ 100", "unit": "nM"}
    ]},
    {"smiles": "[2H]C([2H])([2H])Nc1ncc(C#Cc2ccc3nc(C(F)F)n(C)c3c2)c2cc(NC(=O)[C@H]3C[C@H]3C)ncc12", "note": "[Example 819, (1S,2R)—N-(5-((2-(difluoromethyl)-1-methyl-1H-benzo[d]imidazol-6-yl)ethynyl)-8-((methyl-d3)amino)-2,7-naphthyridin-3-yl)-2-methylcyclopropane-1-carboxamide]", "values": [
      {"measurement": "IC50", "setting": "[1]; [3]", "value": "≤ 500", "unit": "nM"},
      {"measurement": "Kd", "setting": "[2]; [4]", "value": "≤ 100", "unit": "nM"}
    ]}
  ]
}
